Consider 13 compounds from patent US20230192699A1, “COMPOUNDS AS CASEIN KINASE INHIBITORS” (GRITSCIENCE BIOPHARMACEUTICALS CO., LTD., priority 2020, published 2023).

Data set [1] has as its system MDA-MB-231 cells (breast cancer cells). Nature of the data set: Transwell cell migration assay. The data set is classed as cell-based. As to conditions: MDA-MB-231, 24 h; for relative migration (%) of cells: FIG. 61; for migrated cells: FIGS. 62-67. The protocol:
MDA-MB-231 cells (breast cancer cells) were starved in 0.5% serum-DMEM for 8 hours. For the migration assay, a total of 5×10^4cells were suspended in 500 μL of serum-free DMEM medium and seeded into the upper chamber of a […] pore size insert. Then, 750 μL of DMEM (containing 10% FBS) with or without the compound of the present application was added to the lower compartment. After incubation at 37° C. for 24 h, migrated cells were washed with PBS, fixed in 4% PFA and stained for 30 min in crystal violet solution (0.1% crystal violet). […] Each insert was photographed in 3 random fields at a magnification of 40×.

In another data set the target is wild type CK1δ (Homo sapiens, UniProt P48730). Nature of the data set: CK1δ kinase assay (Kinase-Glo). The settings on record: 10 μM ATP, 2 nM wild type CK1δ, 85 min at 25° C.; read-out: CK1δ inhibition (IC50). The data set is classed as biochemical. The protocol:
The CK1δ kinase assay was performed with a buffer (40 μL, pH 7.5) containing 50 mM Tris, 10 mM MgCl2, 1 mM dithiothreitol, 100 μg/mL BSA with 10 μM ATP, 2 nM wild type CK1δ, and 42 μM peptide substrate PLSRTLpSVASLPGL (Flotow et al., 1990) in the presence of 1 μL of a CK1δ inhibitor (e.g., a compound of the present application) or 4% DMSO (e.g., as control). The reaction mixture was incubated for 85 min at 25° C.; detection was carried out as described for the Kinase-Glo Assay (Promega). Luminescent output was measured on the Perkin Elmer Envision plate reader (PerkinElmer, Waltham, Mass.).

A short description of data set [2]: Assay of intrinsic clearance in liver microsomes (mouse). As to conditions: Mouse liver microsomes 0.5 mg/mL, 2 μM compound, 37° C.; for microsomal CLint at 2 μM: read-out: in vitro CLint (μL/min/mg protein); for half-life at 2 μM: read-out: in vitro t1/2. The data set is classed as in vitro ADME. The protocol:
(§1) 1. The master solution was prepared according to Table 11.
(§2) 2. Three separated experiments were performed as follows. a) With NADPH: 10 μL of 20 mg/mL liver microsomes and 40 μL of 10 mM NADPH were added to the incubations. The final concentrations of microsomes and NADPH were 0.5 mg/mL and 1 mM, respectively. b) Without NADPH: 10 μL of 20 mg/mL liver microsomes and 40 μL of ultra-pure H2O were added to the incubations. The final concentration of microsomes was 0.5 mg/mL. c) Heat-inactivated microsomes without NADPH: 10 μL of 20 mg/mL heat-inactivated liver microsomes and 40 μL of ultra-pure H2O were added to the incubations. The final concentration of microsomes was 0.5 mg/mL.
(§3) 3. The reaction was started with the addition of 4 μL of 200 μM test compound solution or control compound solution at the final concentration of 2 μM and carried out at 37° C.
(§4) 4. Aliquots of 50 μL were taken from the reaction solution at 0, 15, 30, 45 and 60 min. The reaction was stopped by the addition of 4 volumes of cold acetonitrile with IS (100 nM alprazolam, 200 nM labetalol, 200 nM caffeine and 2 μM ketoprofen). Samples were centrifuged at 3, 220 g for 40 minutes.
(§5) Peak areas were determined from extracted ion chromatograms. The slope value, k, was determined by linear regression of the natural logarithm of the remaining percentage of the parent drug vs. incubation time curve.
(§6) The in vitro half-life (in vitro t1/2) was determined from the slope value:
(§7) Conversion of the in vitro t1/2 (min) into the in vitro intrinsic clearance (in vitro CLint, in μL/min/mg protein) was done using the following equation (mean of duplicate determinations):
(§8) in vitro CLint=(0.693 * volume of incubation(μl))/(in vitro t1/2 * amount of proteins(mg))

Data set [3] can be described thus: Assay of intrinsic clearance in liver microsomes (human). The data set is classed as in vitro ADME. As to conditions: Human liver microsomes 0.5 mg/mL, 2 μM compound, 37° C.; for microsomal CLint at 2 μM: read-out: in vitro CLint (μL/min/mg protein); for half-life at 2 μM: read-out: in vitro t1/2. The protocol: as §1, §2, §3, §4, §5, §6, §7, §8
The nature of data set [4]: Assay of drug transport in Caco-2 cells. As to conditions: human, Caco-2, pH 7.4. The protocol: 1) 50 μL and 25 mL of cell culture medium were added to each well of the Transwell insert and reservoir, respectively. And then the HTS transwell plates were incubated at 37° C., 5% CO2 for 1 hour before cell seeding.
2) Caco-2 cells were diluted to 6. 86×10^5 cells/mL with culture medium and 50 μL of cell suspension were dispensed into the filter well of the 96-well HTS Transwell plate. Cells were cultivated for 14-18 days in a cell culture incubator at 37° C., 5% CO2, 95% relative humidity. Cell culture medium was replaced every other day, beginning no later than 24 hours after initial plating.
10 mM stock solutions of test compounds were prepared in DMSO. The stock solutions of positive controls were prepared in DMSO at the concentration of 10 mM. Digoxin and propranolol were used as control compounds in this assay.
1) Medium was removed from the reservoir and each Transwell insert and replaced with prewarmed fresh culture medium.
2) Transepithelial electrical resistance (TEER) across the monolayer was measured using Millicell Epithelial Volt-Ohm measuring system (Millipore, USA).
The TEER value was calculated according to the following equation: TEER measurement (ohms) * Area of membrane (cm^2)=TEER value (ohm·cm^2) TEER value should be greater than 230 ohm·cm^2, which indicates the well-qualified Caco-2 monolayer.
1) The Caco-2 plate was removed from the incubator and washed twice with pre-warmed HMS (10 mM HEPES, pH 7.4), and then incubated at 37° C. for 30 minutes.
2) The stock solutions of control compounds and test compounds were diluted in DMSO to get 1 mM solutions and then diluted with HMS (10 mM HEPES, pH 7.4) get 5 μM working solutions. The final concentration of DMSO in the incubation system was 0.5%.
3) To determine the rate of drug transport in the apical to basolateral direction. 125 μL of 5 μM working solution of control compound and test compounds were added to the Transwell insert (apical compartment), and transfer 50 μL sample (D0 sample) immediately from the apical compartment to a new 96-well plate. Fill the wells in the receiver plate (basolateral compartment) with 235 μL of MSS (10 mM HEPES, pH 7.4).
4) To determine the rate of drug transport in the basolateral to apical direction. 285 μL of 5 μM working solution of control compound and test compounds were to the receiver plate wells (basolateral compartment), and transfer 50 μL sample (D0 sample) immediately from the basolateral compartment to a new 96-well plate. Fill the wells in the Transwell insert (apical compartment) with 75 μL of MSS (10 mM HEPES, pH 7.4). The assay was performed in duplicate.
5) The plates were incubated at 37° C. for 2 hours.
6) At the end of the incubation, 50 μL samples from donor sides (apical compartment for Ap→Bl flux, and basolateral compartment for Bl→Ap) and receiver sides (basolateral compartment for Ap→Bl flux, and apical compartment for Bl→Ap) were transferred to wells of a new 96-well plate, followed by the addition of 4 volume of cold methanol containing appropriate internal standards (IS). Samples were Vortexed for 5 minutes and then centrifuged at 3,220 g for 40 minutes. An aliquot of 100 μL of the supernatant was mixed with an appropriate volume of ultra-pure water before LC-MS/MS analysis.
7) To determine the Lucifer Yellow leakage after 2-hour transport period, stock solution of Lucifer yellow was prepared in water and diluted with HMS (10 mM HEPES, pH 7.4) to reach the final concentration of 100 μM. 100 μL of the Lucifer yellow solution was added to each Transwell insert (apical compartment), followed by filling the wells in the receiver plate (basolateral compartment) with 300 μL of HBSS (10 mM HEPES, pH 7.4). The plates were Incubated at 37° C. for 30 mins. 80 μL samples were removed directly from the apical and basolateral wells (using the basolateral access holes) and transferred to wells of new 96 wells plates.

wild type CK1δ, sequence (P48730 whole entry): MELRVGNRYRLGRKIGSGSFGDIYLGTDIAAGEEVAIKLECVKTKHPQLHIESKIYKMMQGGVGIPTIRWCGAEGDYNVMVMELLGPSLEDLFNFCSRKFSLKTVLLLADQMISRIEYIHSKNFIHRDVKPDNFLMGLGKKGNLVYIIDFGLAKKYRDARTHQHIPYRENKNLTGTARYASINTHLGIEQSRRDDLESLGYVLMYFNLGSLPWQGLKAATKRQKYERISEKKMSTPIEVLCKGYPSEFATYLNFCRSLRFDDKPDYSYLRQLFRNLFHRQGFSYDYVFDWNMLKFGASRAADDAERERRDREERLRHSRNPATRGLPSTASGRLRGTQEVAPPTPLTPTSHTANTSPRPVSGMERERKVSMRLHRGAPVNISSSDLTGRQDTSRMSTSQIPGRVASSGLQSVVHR

For `Cc1cn(-c2ccncc2)c(-c2ccc(F)cc2)c1C#N` [Compound 2-2, 2-(4-fluorophenyl)-4-methyl-1-(pyridin-4-yl)-1H-pyrrole-3-carbonitrile], in data set [1], the “relative migration (%) of cells” value is on record as “reduced” and the migrated cells result was “suppressed the migration”. For the same compound, at wild type CK1δ, the IC50 is 212 nM.

`Nc1cc(-c2c(-c3ccc(F)cc3)nn3c2COCC3)ccn1` [Compound 1-49, 4-(2-(4-fluorophenyl)-6,7-dihydro-4H-pyrazolo[5,1-c][1,4]oxazin-3-yl)pyridin-2-amine]: the microsomal CLint at 2 μM in data set [2] is 104 µL/min/mg; in data set [3] it was 49.5 µL/min/mg. Also, the values for the half-life at 2 μM in data set [2] and in data set [3] were 13.3 min and 28 min, respectively. Also, the IC50 at wild type CK1δ was found to be 320 nM.

Consider `CC(C)NCC(O)COc1cccc2ccccc12` (stereo not shown) [Propranolol, reference compound], for which, in data set [4], the efflux ratio at 2 h, 5 μM was 0.51.

Turning to `Cn1cc(-c2ccnc3[nH]ncc23)c(-c2ccc(F)cc2)c1C#N` [Compound 5-2, 3-(4-fluorophenyl)-1-methyl-4-(1H-pyrazolo[3,4-b]pyridin-4-yl)-1H-pyrrole-2-carbonitrile], in data set [2], the microsomal CLint at 2 μM is 25.2 µL/min/mg and the half-life at 2 μM turned out to be 55 min. For the same compound, in data set [3], the microsomal CLint at 2 μM was 7.93 µL/min/mg and the half-life at 2 μM was 175 min. Besides, the IC50 at wild type CK1δ is 168 nM.

For the compound `CC(=O)N1CCn2nc(-c3ccc(F)cc3)c(-c3ccnc(N)c3)c2C1` [Compound 1-50, 1-(3-(2-aminopyridin-4-yl)-2-(4-fluorophenyl)-6,7-dihydropyrazolo[1,5-a]pyrazin-5(4H)-yl)ethan-1-one], the half-maximal inhibitory concentration (IC50) at wild type CK1δ came out at 355 nM. In addition, in data set [4], the apparent permeability from apical to basolateral (Papp A→B) at 2 h, 5 μM was 8.5 ×10⁻⁶ cm/s; the Papp B→A at 2 h, 5 μM worked out at 30.8 ×10⁻⁶ cm/s; the efflux ratio at 2 h, 5 μM was determined as 3.6.

Consider `Fc1ccc(-c2nn[nH]c2-c2ccncc2)cc1` [Compound 3-7, 4-(4-(4-fluorophenyl)-1H-1,2,3-triazol-5-yl)pyridine], for which, in data set [1], the “relative migration (%) of cells” value is “reduced” and the migrated cells result is given as “suppressed the migration”. Further, the concentration for half-maximal inhibition (IC50) at wild type CK1δ amounted to 7140 nM.

Take `Nc1cc(-c2c(-c3ccc(F)cc3)nn3c2CCC3)ccn1` [Compound 1-57, 4-(2-(4-fluorophenyl)-5,6-dihydro-4H-pyrrolo[1,2-b]pyrazol-3-yl)pyridin-2-amine]: in data set [2], the microsomal CLint at 2 μM came out at 285 µL/min/mg and the half-life at 2 μM turned out to be 4.86 min. Further, in data set [3], the microsomal CLint at 2 μM was 104 µL/min/mg and the half-life at 2 μM came out at 13.4 min. The 50% inhibitory concentration (IC50) at wild type CK1δ was determined as 131 nM. In data set [4], the Papp A→B at 2 h, 5 μM was 19.2 ×10⁻⁶ cm/s; the Papp B→A at 2 h, 5 μM was 17.3 ×10⁻⁶ cm/s; the efflux ratio at 2 h, 5 μM worked out at 0.9.

`C[C@@H]1Cn2nc(-c3ccc(F)cc3)c(-c3ccncc3)c2CO1` [Compound 1-46, (R)-2-(4-fluorophenyl)-6-methyl-3-(pyridin-4-yl)-6,7-dihydro-4H-pyrazolo[5,1-c][1,4]oxazine]: in data set [2], the microsomal CLint at 2 μM was found to be 44.9 µL/min/mg and the half-life at 2 μM was found to be 30.9 min. In data set [3], the microsomal CLint at 2 μM came to 60.1 µL/min/mg and the half-life at 2 μM was found to be 23.1 min. Besides, the IC50 at wild type CK1δ is 273 nM.

As to `Cn1nnc(-c2ccc(F)cc2)c1-c1ccncc1` [Compound 3-9, 4-(4-(4-fluorophenyl)-1-methyl-1H-1,2,3-triazol-5-yl)pyridine], the half-maximal inhibitory concentration (IC50) at wild type CK1δ was determined as 21400 nM.

With `Fc1ccc(-c2nc3n(c2-c2ccncc2)CCNC3)cc1` [Compound 1-6, 2-(4-fluorophenyl)-3-(pyridin-4-yl)-5,6,7,8-tetrahydroimidazo[1,2-a]pyrazine], the 50% inhibitory concentration (IC50) on wild type CK1δ was found to be 254 nM.

With `CN1CCn2nc(-c3ccc(F)cc3)c(-c3ccnc(N)c3)c2C1` [Compound 1-59, 4-(2-(4-fluorophenyl)-5-methyl-4,5,6,7-tetrahydropyrazolo[1,5-a]pyrazin-3-yl)pyridin-2-amine], in data set [2], the microsomal CLint at 2 μM is 22.2 µL/min/mg and the half-life at 2 μM came out at 62.3 min. In data set [3], the microsomal CLint at 2 μM turned out to be 9.7 µL/min/mg and the half-life at 2 μM was 143 min. For the same compound, the IC50 on wild type CK1δ was 39.7 nM. In data set [4], the Papp A→B at 2 h, 5 μM was 22.8 ×10⁻⁶ cm/s; the Papp B→A at 2 h, 5 μM turned out to be 23.9 ×10⁻⁶ cm/s; the efflux ratio at 2 h, 5 μM stood at 1.05.

Take `C[C@H]1O[C@@H](O[C@H]2[C@@H](O)C[C@H](O[C@H]3[C@@H](O)C[C@H](O[C@H]4CC[C@@]5(C)[C@H](CC[C@@H]6[C@@H]5C[C@@H](O)[C@]5(C)[C@@H](C7=CC(=O)OC7)CC[C@]65O)C4)O[C@@H]3C)O[C@@H]2C)C[C@H](O)[C@@H]1O` [Digoxin, reference compound]: in data set [4], the efflux ratio at 2 h, 5 μM was 56.5.

With `CC(=O)N1CCn2nc(-c3ccc(F)cc3)c(-c3ccnc(C)n3)c2C1` [Compound 1-51, 1-(2-(4-fluorophenyl)-3-(2-methylpyrimidin-4-yl)-6,7-dihydropyrazolo[1,5-a]pyrazin-5(4H)-yl)ethan-1-one], at wild type CK1δ, the half-inhibitory concentration (IC50) worked out at 963 nM.
